Patent publication US12558337B2, “Formulations comprising melflufen” (ON[…], priority 2019, dated 2026)
“And” between values parts separate entries of the source, which are not always exact repeats. Equal values may be shown once.

How the values were obtained:
Assay type in all cases: physicochemical
[1] = Stability study of formulation containing melflufen (OPD-5) and PEG 300 at 2-8° C., 25° C. and 40° C. (RP-HPLC, visual appearance); settings: in PEG 300; for change in melflufen concentration on storage: up to 164 days
Procedure: (§1) Vials (2R type 1 glass vials, Gerresheimer, #35601558) were washed with purified water (≤0.2 μmS/cm, <10 ppb Total Organic Carbon (TOC)). Afterwards, the vials were dried and heat-treated at 300° C. for 2 hours. Rubber stoppers were autoclaved at 121° C. and 2 bar for 15 min.
(§2) The formulation was prepared by dissolving melflufen (OPD-5) at a concentration of approximately 20 mg/mL (excluding the mass of the counterion) in polyethylene glycol (polyethylene glycol 300, Emprove exp., Ph. Eur, Merck Chemicals, #K47544702). 1 mL of the melflufen solution was added into each vial. The filled vials were then closed with a rubber stopper and crimp capped. The 1 mL samples were analysed at T0 (i.e. before storage) and after storage for approximately 4 weeks (T1a), 8 weeks (T2a), 12 weeks (T3a), and 24 weeks (T4a) at 2-8° C., 25° C. or 40° C.
RP-HPLC analysis was performed using an Agilent 1100 series Liquid Chromatography, and an XBridge® Shield (RP18, 3.5 μm, 4.6×150 mm) column. The method used a 0-80% B gradient over 20 min and a flow of 1.0 mL/min (mobile phase A: 10 mM ammonium acetate pH 5.0/acetonitrile 86/14 v/v; mobile phase B: acetonitrile), a column temperature of 20° C., a sampler temperature of 5° C., and UV detection at 262 nm. The pharmaceutical formulations were diluted to a melflufen concentration of 0.8 mg/mL using an ethanol/acetonitrile diluent (3:7 v/v) prior to RP-HPLC analysis.

[2] = Solubility of melflufen (OPD-5) in PEG 300; settings: approximately 20 mg/mL prepared
Procedure: as §2

[3] = Stability study of formulation containing melflufen (OPD-5) and propylene glycol at 2-8° C., 25° C. and 40° C. (RP-HPLC, visual appearance); settings: in propylene glycol; for change in melflufen concentration on storage: up to 168 days
Procedure: as §1
(§3) The formulation was prepared by dissolving melflufen (OPD-5) at a concentration of approximately 20 mg/mL (excluding the mass of the counterion) in propylene glycol (1,2-Propanediol, EMPROVE® exp Ph Eur, BP, USP, Merck Chemicals, #K49954578). 1 mL of the melflufen solution was added into each vial. The filled vials were then closed with a rubber stopper and crimp capped. The 1 mL samples were analysed at T0 (i.e. before storage) and after storage for approximately 4 weeks (T1), 8 weeks (T2), 12 weeks (T3), and 24 weeks (T4) at 2-8° C., 25° C. or 40° C.
RP-HPLC analysis was performed using an Agilent 1100 series Liquid Chromatography, and an)(Bridge® Shield (RP18, 3.5 μm, 4.6×150 mm) column. The method used a 0-80% B gradient over 20 min and a flow of 1.0 mL/min (mobile phase A: 10 mM ammonium acetate pH 5.0/acetonitrile 86/14 v/v; mobile phase B: acetonitrile), a column temperature of 20° C., a sampler temperature of 5° C., and UV detection at 262 nm. The pharmaceutical formulations were diluted to a melflufen concentration of 0.8 mg/mL using an ethanol/acetonitrile diluent (3:7 v/v) prior to RP-HPLC analysis.

[4] = Stability study of formulation containing melflufen (OPD-5) and propylene glycol at −20° C. and −70° C.; settings: in propylene glycol
Procedure: 536.25 mg of melflufen (OPD-5) was weighed into a […] volumetric flask. The flask was then filled with propylene glycol (W294004-1 Kg-K, Lot no: MKCD8681, Sigma-Aldrich). The resulting mixture was vortexed for 3 minutes. The mixture was then stirred for 15 minutes at 28° C. with occasional vortexing to furnish a clear solution having a melflufen concentration of approximately 20 mg/mL (excluding the mass of the counterion). The solution was aliquoted into 1 mL vials and stored at −70° C. or at −20° C.
The concentration and purity (% relative peak area) of melflufen in the propylene glycol formulation was analysed at time 0 (T0b) and then every 1 month by RP-HPLC. For each time point, two replicated were analysed (i.e. two separate vials of the formulation). At each time point the vials were visually checked for any color change or precipitation.
RP-HPLC analysis was performed using an Agilent 1100 series Liquid Chromatography, and an XBridge® C18 (2.1×100 mm, 3.5 μm) column. The method used a 5-95% B gradient over 6 min and a flow of 0.8 mL/min (mobile phase A: 0.1% formic acid in water; mobile phase B: 0.1% formic acid in acetonitrile), a column temperature of 55° C., a sampler temperature of 25° C., and UV detection at 262 nm. Samples were then diluted to 200 μg/mL concentration in DMA before injection into RP-HPLC. An injection volume of 5 μL was used.

[5] = Solubility of melflufen (OPD-5) in propylene glycol; settings: approximately 20 mg/mL prepared
Procedure: as §3

[6] = Stability of isolated melflufen freebase oil; settings: colorless oil; room temperature; several days
Procedure: The hydrochloride salt of melflufen may be prepared as disclosed in WO 01/96367, which is incorporated herein by reference. Ethanesulfonate, maleate and p-toluenesulfonate salts of melflufen were prepared by treating the melflufen freebase with 1 equivalent of the respective acid in dichloromethane or ethyl acetate. If required, heptane was added to initiate salt precipitation. All salts were isolated as white solids in a 1:1 ratio of melflufen and counterion, and dried under high vacuum. Melflufen freebase was prepared from melflufen hydrochloride using NaHCO3 and dichloromethane (DCM). Melflufen hydrochloride was suspended in 100 mL of dichloromethane before an ice-cold solution of NaHCO3(aq) was added. The mixture was shaken for 30 seconds and the phases were allowed to settle. The organic phase was collected and dried over MgSO4 before the solvent was removed in vacuo at 0° C. Melflufen freebase was isolated as a colorless oil. No degradation of melflufen was observed by HPLC analysis and the oil was stable at room temperature for several days.

[7] = 2-8° C., T1a (26 days), hydrochloride
[8] = 2-8° C., T2a (54 days), hydrochloride
[9] = 2-8° C., T3a (94 days), hydrochloride
[10] = 25° C., T1a (26 days), hydrochloride
[11] = 25° C., T2a (54 days), hydrochloride
[12] = 25° C., T3a (94 days), hydrochloride
[13] = 25° C., T4a (164 days), hydrochloride
[14] = 40° C. (accelerated storage condition), over time
[15] = 2-8° C., T1 (31 days), hydrochloride
[16] = 2-8° C., T4 (168 days), hydrochloride
[17] = 25° C., T1 (31 days), hydrochloride
[18] = 25° C., T3 (98 days), hydrochloride
[19] = 25° C., T4 (168 days), hydrochloride

## Cl.[2H]C([2H])([2H])C([2H])([2H])OC(=O)[C@H](Cc1ccc(F)cc1)NC(=O)[C@@H](N)Cc1ccc(N(CCCl)CCCl)cc1 [OPD-5, (^2H5)ethyl (2S)-2-[(2S)-2-amino-3-{4-[bis(2-chloroethyl)amino]phenyl}propanamido]-3-(4-fluorophenyl)propanoate hydrochloride]
[1]; 2-8° C., 26 days (T1a)
  visual appearance: slight yellow colouration
[1]; 2-8° C., 54 days (T2a), 94 days (T3a) and 164 days (T4a)
  visual appearance: small increase in the intensity of the yellow colouration
[1]; [7]
  Concentration of melfufen (ODP-5): 19900 µg/mL and 19800 µg/mL
  Purity of melfufen (ODP-5): 96.7 % relative peak area and 96.9 % relative peak area
[1]; [8]
  Concentration of melfufen (ODP-5): 19900 µg/mL and 19300 µg/mL
  Purity of melfufen (ODP-5): 95.2 % relative peak area and 95.5 % relative peak area
[1]; [9]
  Concentration of melfufen (ODP-5): 18700 µg/mL and 18900 µg/mL
  Purity of melfufen (ODP-5): 92.7 % relative peak area and 92.6 % relative peak area
[1]; 2-8° C., T4a (164 days)
  Concentration of melfufen (ODP-5): 18700 µg/mL
[1]; 2-8° C., T4a (164 days), hydrochloride
  Purity of melfufen (ODP-5): 91.4 % relative peak area and 91.3 % relative peak area
[1]; 2-8° C.
  change in melflufen concentration on storage: no significant change
[1]; [10]
  Concentration of melfufen (ODP-5): 18100 µg/mL and 17900 µg/mL
  Purity of melfufen (ODP-5): 89.3 % relative peak area and 89.6 % relative peak area
[1]; [11]
  Concentration of melfufen (ODP-5): 14400 µg/mL and 15300 µg/mL
  Purity of melfufen (ODP-5): 83.8 % relative peak area and 85.1 % relative peak area
[1]; [12]
  Concentration of melfufen (ODP-5): 11200 µg/mL and 11300 µg/mL
  Purity of melfufen (ODP-5): 74.2 % relative peak area and 74.7 % relative peak area
[1]; [13]
  Concentration of melfufen (ODP-5): 9800 µg/mL and 9500 µg/mL
  Purity of melfufen (ODP-5): 70 % relative peak area and 68.1 % relative peak area
[1]; 25° C., over time (T1a to T4a)
  visual appearance: yellow to brown colouration that increased in intensity over time
[1]; 25° C.
  change in melflufen concentration on storage: decrease over time
[1]; [14]
  visual appearance: yellow to brown colouration that increased in intensity over time
[2]
  solubility in PEG 300: readily soluble
[3]; [15]
  Concentration of melfufen (ODP-5): 20100 µg/mL and 20200 µg/mL
  Purity of melfufen (ODP-5): 99.1 % relative peak area and 99.3 % relative peak area
[3]; 2-8° C., T2 (59 days)
  Purity of melfufen (ODP-5): 99.2 % relative peak area
[3]; 2-8° C., T2 (59 days), hydrochloride
  Concentration of melfufen (ODP-5): 19800 µg/mL and 20300 µg/mL
[3]; 2-8° C., T3 (98 days)
  Concentration of melfufen (ODP-5): 20500 µg/mL
[3]; 2-8° C., T3 (98 days), hydrochloride
  Purity of melfufen (ODP-5): 99.0 % relative peak area and 98.5 % relative peak area
[3]; [16]
  Concentration of melfufen (ODP-5): 18400 µg/mL and 18300 µg/mL
  Purity of melfufen (ODP-5): 95.4 % relative peak area and 95.8 % relative peak area
[3]; 2-8° C., at each time point (T1, T2, T3 and T4)
  visual appearance: no visible colouration
[3]; 2-8° C.
  change in melflufen concentration on storage: no significant change
[3]; [17]
  Concentration of melfufen (ODP-5): 15700 µg/mL and 15800 µg/mL
  Purity of melfufen (ODP-5): 89.0 % relative peak area and 89.3 % relative peak area
[3]; 25° C., T2 (59 days)
  Purity of melfufen (ODP-5): 81.3 % relative peak area
[3]; 25° C., T2 (59 days), hydrochloride
  Concentration of melfufen (ODP-5): 14100 µg/mL and 12200 µg/mL
[3]; [18]
  Concentration of melfufen (ODP-5): 8800 µg/mL and 8400 µg/mL
  Purity of melfufen (ODP-5): 68.1 % relative peak area and 66.6 % relative peak area
[3]; [19]
  Concentration of melfufen (ODP-5): 5100 µg/mL and 4900 µg/mL
  Purity of melfufen (ODP-5): 49.9 % relative peak area and 48.7 % relative peak area
[3]; 25° C., over time (T1 to T4)
  visual appearance: yellow to brown colouration that increased in intensity over time
[3]; 25° C.
  change in melflufen concentration on storage: decrease over time
[3]; [14]
  visual appearance: yellow to brown colouration that increased in intensity over time
[3]; about 5° C. (2 to 8° C.), over 50 days
  melflufen purity retained (relative to the melflufen purity before storage of the formulation): greater than 95%
[4]; −20° C.
  time for which the formulation was stable: at least 6 months
[4]; −20° C., 6 month test period
  change in melflufen (OPD-5) concentration: no notable change
[4]; −20° C., 6 months
  melflufen purity retained (relative to the melflufen purity before storage of the formulation): greater than 99.5%
[4]; −70° C. and −20° C., 6-8 month test period
  colour change or precipitation (visual check): No colour change or precipitation
[4]; −70° C., 8 month test period
  change in melflufen (OPD-5) concentration: no notable change
[4]; −70° C., 8 months
  melflufen purity retained (relative to the melflufen purity before storage of the formulation): greater than 99.5%
[5]
  solubility in propylene glycol: readily soluble

## CCOC(=O)[C@H](Cc1ccc(F)cc1)NC(=O)[C@@H](N)Cc1ccc(N(CCCl)CCCl)cc1 [Melflufen freebase, L-Melphalanyl-4-fluoro-L-phenylalanine ethyl ester]
[6]
  stability of the oil: stable
